Measured values: patent US12428428B2, “Tricyclic tetrahydroisoquinoline derivative, preparation method therefor and application thereof in medicine” (JIANGSU HENGRUI MEDICINE CO., LTD., priority 2020, dated 2025)

What was measured:
[1] = biological target: ER (estrogen receptor) (Homo sapiens (Human), UniProt P03372); assay: Inhibition of binding of E to ER (MCF-7/ERE-luciferase reporter cells); format: cell-based; details: MCF-7/ERE-luciferase cells, 0.1 nM estradiol, 24 h
Method: The compounds of the present disclosure can inhibit the binding of E (estrogen) to ER (estrogen receptor), thereby blocking the binding of the complex of E and ER to ERE (estrogen response element), and consequently the expression of downstream luciferase proteins. The inhibitory effects of the compounds of the present disclosure on the binding of E to ER was tested by using the following method.
An ERE was cloned upstream of the luciferase gene, and MCF-7/ERE-luciferase monoclonal cells were selected by transfection of MCF-7 (TCHu74, National Collection of Authenticated Cell Cultures). The MCF-7/ERE-luciferase cells were seeded into a 96-well plate with an MEM (hyclone, SH30024.01B) medium containing 10% charcoal stripped FBS (Moregate, FBSF), 1% sodium pyruvate (sigma, S8636), 1% non-essential amino acids (sigma, M7145) and 500 μg/mL G418 at a density of 30,000 cells/well and cultured at 37° C. with 5% CO2. 20 mM stock solutions of the drugs are prepared, serially diluted 10-fold with 100% DMSO, and then diluted 20-fold with the medium. After the cells were cultured for 24 h, the medium was removed. 0.1 nM estradiol (sigma, E2758) and 10 μL of a medium-diluted drug were added to each well, and DMSO was added to the control group. The mixtures were well mixed by gentle shaking. The cells were cultured in an incubator at 37° C. with 5% CO2 for 24 h, and then the cell culture liquid was removed, followed by the addition of 50 μL of a luciferase substrate (Promega, E6110) to each well. The plate was let stand at room temperature in the dark for 10-15 min, and the chemiluminescence signal values were determined.
The inhibitory effects of the compounds of the present disclosure on the binding of E to ER were tested through the above experiment. The chemiluminescence signal value was plotted against the compound concentration (in log form) using Graphpad Prism, and the IC50 values of the compounds were obtained.

[2] = biological target: T1, CYP3A4 (Homo sapiens (Human), UniProt P08684); assay: Inhibition of site of metabolism of midazolam in human liver microsome CYP3A4; format: in vitro ADME; details: midazolam substrate
T1 sequence (P08684 whole entry): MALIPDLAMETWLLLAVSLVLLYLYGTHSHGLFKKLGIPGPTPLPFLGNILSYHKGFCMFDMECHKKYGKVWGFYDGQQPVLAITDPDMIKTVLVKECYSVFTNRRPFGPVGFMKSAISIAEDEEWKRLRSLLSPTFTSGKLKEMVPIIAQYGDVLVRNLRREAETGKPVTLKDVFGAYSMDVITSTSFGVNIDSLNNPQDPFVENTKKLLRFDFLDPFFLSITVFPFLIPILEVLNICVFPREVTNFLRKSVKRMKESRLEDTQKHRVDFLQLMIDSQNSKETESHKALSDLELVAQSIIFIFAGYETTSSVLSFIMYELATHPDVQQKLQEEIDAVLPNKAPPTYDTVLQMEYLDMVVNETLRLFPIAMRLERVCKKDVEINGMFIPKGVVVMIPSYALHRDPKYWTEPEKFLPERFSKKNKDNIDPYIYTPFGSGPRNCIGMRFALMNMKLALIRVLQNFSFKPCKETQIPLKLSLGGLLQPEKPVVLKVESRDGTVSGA
Method: (§1) • 1. Phosphate buffer (20×PBS, purchased from Sangon); • 2. NADPH (ACROS, A2646-71-1); • 3. Human liver microsome (Corning Gentest, Cat No, 452161, Lot No. 9050002, Donor, 36); • 4. ABI QTrap 4000 LC-MS System (AB Sciex); • 5. ZORBAX Extend-C18, 3×50 mm, 3.5 μm (Agilent, USA); • 6. CYP probe substrate (midazolam, TRC, M343000/3 μM) and positive control inhibitor (ketoconazole, SIGMA, Cat No. K1003-100MG).
(§2) A 100 mM PBS buffer was prepared. A 0.25 mg/mL microsome solution, a 7.5 mM MgCl2 and a 5 mM NADPH solution were prepared using the buffer. A 30 mM stock solution was diluted with DMSO to obtain 30 mM, 10 mM, 3 mM, 1 mM, 0.3 mM, 0.03 mM, 0.003 mM and 0 mM serial solutions I, which were further diluted 200-fold with phosphate buffer (PBS) to obtain serial test solutions II (150, 50, 15, 5, 1.5, 0.15, 0.015 and 0 μM). A midazolam working solution was diluted with PBS to 15 μM.
(§3) 40 μL of a 0.25 mg/mL microsome solution prepared in 7.5 mM MgCl2 and 20 μL of each of the 15 μM midazolam working solution and the compound working solutions (150, 50, 15, 5, 1.5, 0.15, 0.015 and 0 μM) were measured out and well mixed. Ketoconazole at the same concentration was used in place of the compounds as a positive control group. The mixtures were pre-incubated with 5 mM NADPH solution at 37° C. for 5 min at the same time. After 5 minutes, 20 μL of NADPH was added to each well to start reactions. The mixtures were incubated for 30 min. Duplicate samples were set for all of the incubated samples. After 30 minutes, 250 μL of internal standard-containing acetonitrile was added to all the samples. The mixtures were well mixed, shaken at 800 rpm for 10 min, and then centrifuged at 3700 rpm for 10 min. 100 μL of the supernatant and 80 μL of ultrapure water were well mixed and subjected to LC-MS/MS analysis.
The IC50 values of the drugs for the site of metabolism of midazolam in CYP3A4 were calculated using Graphpad Prism and are shown in Table 5.

[3] = biological target: T1, CYP3A4; assay: Inhibition of site of metabolism of testosterone in human liver microsome CYP3A4; format: in vitro ADME; details: testosterone substrate
Method: as §1, with “905002, Donor36);” for “9050002, Donor, 36);”, “(testosterone, Vocko, CAS No. [58-22-0]/75” for “(midazolam, TRC, M343000/3”
as §2, with “A 100 mM PBS buffer was prepared. […]” for “A 100”, “μM). A testosterone working solution” for “μM). A midazolam working solution”, “PBS to […].” for “PBS to 15 μM.”
as §3, with “the 375” for “the 15”, “μM testosterone” for “μM midazolam”, “min.” for “min. Duplicate samples were set for all of the incubated samples.”
The IC50 values of the drugs for the site of metabolism of testosterone in CYP3A4 were calculated using Graphpad Prism and are shown in Table 6.

ER (estrogen receptor), sequence (P03372 whole entry): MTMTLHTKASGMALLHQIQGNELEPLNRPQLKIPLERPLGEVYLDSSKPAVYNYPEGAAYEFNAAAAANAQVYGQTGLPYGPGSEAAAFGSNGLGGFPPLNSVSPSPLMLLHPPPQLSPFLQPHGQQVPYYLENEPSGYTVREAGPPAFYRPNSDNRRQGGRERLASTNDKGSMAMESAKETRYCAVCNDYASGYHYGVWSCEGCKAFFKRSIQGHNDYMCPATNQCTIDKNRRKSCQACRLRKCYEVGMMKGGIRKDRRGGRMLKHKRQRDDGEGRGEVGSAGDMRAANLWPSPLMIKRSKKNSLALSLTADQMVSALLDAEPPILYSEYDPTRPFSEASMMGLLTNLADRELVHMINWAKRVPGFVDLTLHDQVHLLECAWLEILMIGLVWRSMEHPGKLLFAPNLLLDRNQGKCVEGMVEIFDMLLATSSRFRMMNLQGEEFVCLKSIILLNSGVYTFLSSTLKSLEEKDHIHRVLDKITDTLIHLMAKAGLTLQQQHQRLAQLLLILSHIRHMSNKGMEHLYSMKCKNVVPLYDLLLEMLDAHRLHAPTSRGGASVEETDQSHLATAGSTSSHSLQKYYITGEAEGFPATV

- IC50 [1]: 1.13 nM
- IC50 [2]: 8.18 µM
- IC50 [3]: 23.8 µM
SMILES: [2H]C1([2H])Oc2cc3c(cc2O1)[C@@H](c1ccc(N[C@H]2CCN(CCCF)C2)cn1)N(CC(F)(F)CO)[C@H](C)C3 [Example 12, 2,2-Difluoro-3-((5S,7R)-5-(5-(((S)-1-(3-fluoropropyl)pyrrolidin-3-yl)amino)pyridin-2-yl)-7-methyl-7,8-dihydro-[1,3]dioxolo[4,5-g]isoquinolin-6(5H)-yl-2,2-d2)propan-1-ol]
